Assay results: patent US20260297088A1, “A 1,5-DIHYDRO-4H-PYRROLO[3,2-C] PYRIDIN-4-ONE FOR USE IN THE TREATMENT OF CANCER” (ANTARES THERAPEUTICS, INC., priority 2023, published 2026)

Tests used:
[1] = system: BaF3 ASV (EGFR exon 20 ASV Ins V769_D770); assay: Ba/F3 cell viability (CellTiter-Glo), EGFR exon 20 ASV Ins V769_D770; assay type: cell-based, murine; conditions: Mus musculus, Ba/F3 EGFR exon 20 ASV Ins V769_D770, 72 hours
Description: (§1) Cell lines are generated by transducing Ba/F3 cells with retroviruses containing vectors with EGFR WT, EGFR exon 20 NPG Ins D770_N771, EGFR exon 20 ASV Ins V769_D770, EGFR exon 20 SVD Ins D770_N771, or EGFR exon 20 FQEA Ins A763_V764 genes and a puromycin selection marker. Transduced cells are selected with puromycin for 7 days and are then be transferred into culture media without Interleukin 3 (IL3). EGFR WT cells are maintained with supplemental EGF. Surviving cells are confirmed to express EGFR by Western blot and maintained as a pool. The IC50 data are included in Table 6.
(§2) • 1 Cell seeding • 1.1 Cells are harvested from flask into cell culture medium and the cell number counted. • 1.2 Cells are diluted with culture medium to the desired density and 40 L of cell suspension is added into each well of 384-well cell culture plate and the seeding density is 600 cells/well. • 2 Compound preparation and treatment • 2.1 Test compounds are dissolved to 10 mM in a DMSO stock solution. 45 µL of stock solution is transferred to a 384 polypropylene plate (pp-plate). Perform 3-fold, 10-point dilution via transferring 15 L compound into 30 L DMSO using a TECAN (EVO200) liquid handler. • 2.2 Spin plates at room temperature at 1,000 RPM for 1 minute. • 2.3 Transfer 120 nL of diluted compound from compound source plate into the cell plate. • 2.4 After compound treatment for 72 hours, perform CTG detection for compound treatment plates as described in “Detection” section. • 3 Detection • 3.1 Plates are removed from incubators and equilibrated at room temperature for 15 minutes. • 3.2 Thaw the CellTiter Glo reagents and allow to equilibrate to room temperature before the experiment. • 3.3 Add 40 µL of CellTiter-Glo reagent into each well (at 1:1 to culture medium). Then place the plates at room temperature for 30 min followed by reading on EnVision. • 4 Data analysis • 4.1 Inhibition activity is calculated following the formula below:
(§3) [formula] • where HC is obtained from cells treated with 0.1% DMSO only; and LC is obtained from culture medium only. • 4.2 2. Calculate the IC50 by fitting the Curve using Xlfit (v5.3.1.3), equation 201:
(§4) [formula] • The IC50 date are included in Table 6.

[2] = system: BaF3 WT (EGFR WT); assay: Ba/F3 cell viability (CellTiter-Glo), EGFR WT; assay type: cell-based, murine; conditions: Mus musculus, supplemental EGF, 72 hours
Description: as §1, §2, §3, §4

[3] = system: BaF3 L858R; assay: Ba/F3 cell viability (CellTiter-Glo), EGFR L858R; assay type: cell-based, murine; conditions: Mus musculus, 72 hours
[4] = system: EGFR L858R phosphorylation (pEGFR); assay: Inhibitor activity on EGFR phosphorylation (pEGFR AlphaLISA), L858R; assay type: cell-based; conditions: 2 hours
[5] = system: BaF3 SVD (EGFR exon 20 SVD Ins D770_N771); assay: Ba/F3 cell viability (CellTiter-Glo), EGFR exon 20 SVD Ins D770_N771; assay type: cell-based, murine; conditions: Mus musculus, Ba/F3 EGFR exon 20 SVD Ins D770_N771, 72 hours
Description: as §1, §2, §3, §4

[6] = system: BaF3 L858R/C797S; assay: Ba/F3 cell viability (CellTiter-Glo), EGFR L858R/C797S; assay type: cell-based, murine; conditions: Mus musculus, 72 hours
[7] = system: BaF3 NPG (EGFR exon 20 NPG Ins D770_N771); assay: Ba/F3 cell viability (CellTiter-Glo), EGFR exon 20 NPG Ins D770_N771; assay type: cell-based, murine; conditions: Mus musculus, Ba/F3 EGFR exon 20 NPG Ins D770_N771, 72 hours
Description: as §1, §2, §3, §4

[8] = system: EGFR Del19 phosphorylation (pEGFR); assay: Inhibitor activity on EGFR phosphorylation (pEGFR AlphaLISA), Del19; assay type: cell-based; conditions: 2 hours
[9] = system: EGFR phosphorylation (pEGFR) in CUTO14 cells; assay: Inhibitor activity on EGFR phosphorylation (pEGFR AlphaLISA), CUTO14 cells; assay type: cell-based; conditions: 2 hours
Description: EGFR mutant Ba/F3 cells were generated by transduction with retrovirus containing vectors expressing EGFR exon 20 NPG Ins D770_N771, EGFR exon 20 ASV Ins V769_D770, or EGFR exon 20 SVD Ins D770_N771 genes along with a puromycin selection marker. Transduced cells are selected with puromycin for 7 days and are then be transferred into culture media without Interleukin 3 (IL3). Surviving cells are confirmed to express EGFR by Western blot and maintained as a pool. CUTO14 cells were obtained from Dr. Robert C. Doebele at the University of Colorado. The IC50 data are included in Table 6.
• 1 Cell seeding • 1.1 Cells are harvested from flask into cell culture medium and the cell number counted. • 1.2 Cells are diluted with culture medium to the desired density and 40 μL of cell suspension is added into each well of 384-well cell culture plate and the seeding density is 50K cells/well (Ba/F3) or 12.5K cells/well (CUTO14). • 2 Compound preparation and treatment • 2.1 Test compounds are dissolved to 10 mM in a DMSO stock solution. 45 µL of stock solution is transferred to a 384 polypropylene plate (pp-plate). Perform 3-fold, 10-point dilution via transferring 15 L compound into 30 L DMSO using a TECAN (EVO200) liquid handler. • 2.2 Spin plates at room temperature at 1,000 RPM for 1 minute. • 2.3 Transfer 5 nL of diluted compound from compound source plate into the cell plate. • 2.4 After compound treatment for 2 hours, perform pEGFR detection by AlphaLISA for compound treatment plates as described in “Detection” section. • 3 Detection by pEGFR AlphaLISA (Perkin-Elmer) • 3.1 Plates are removed from incubators and equilibrated at room temperature for 10 minutes, and media was removed • 3.2 10 µL of lysis buffer is added and plates shaken at 600 rpm for 1 hr. • 3.3 Prepare acceptor mix just before use and dispense 5 μL of acceptor mix to all the wells. […] Mix well on the shaker, seal and wrap in aluminum foil and incubate 1.5 hrs at room temperature in the dark • 3.5 Transfer 18.5 μL mixture to OptiPlate 384, and read using an Envision.

[10] = system: EGFR L858R/C797S phosphorylation (pEGFR); assay: Inhibitor activity on EGFR phosphorylation (pEGFR AlphaLISA), L858R/C797S; assay type: cell-based; conditions: 2 hours
[11] = system: BaF3 Del19; assay: Ba/F3 cell viability (CellTiter-Glo), EGFR Del19; assay type: cell-based, murine; conditions: Mus musculus, 72 hours
[12] = system: EGFR containing one or more mutations versus wild type EGFR; conditions: compound of WO 2022/076831; cited from earlier work

For `COc1c(Cl)cccc1Nc1c(-c2ccnc(C)n2)[nH]c2c(CCO)c[nH]c(=O)c12` [Compound 5], which IC50 [1] is on record?
Its IC50 is 100 to 1000 nM.

And the IC50 [2]?
Its IC50 is at least 1000 nM.

And the IC50 [3]?
Its IC50 is under 100 nM.

What about the IC50 [4] of the same molecule?
The IC50 was under 100 nM.

What about the IC50 [5] of the same molecule?
Its IC50 is 100 to 1000 nM.

And the IC50 [6]?
The IC50 was 100 to 1000 nM.

What about the IC50 [7] of the same molecule?
Its IC50 is 100 to 1000 nM.

And the IC50 [8]?
Its IC50 is under 100 nM.

What about the IC50 [9] of the same molecule?
The IC50 was 100 to 1000 nM.

And the IC50 [10]?
Its IC50 is under 100 nM.

What about the IC50 [11] of the same molecule?
Its IC50 is under 100 nM.

What does the source list for `COCCc1c[nH]c(=O)c2c(Nc3cccc(Cl)c3OC)c(-c3ccncn3)[nH]c12` [Compound 2]?
IC50 [1]: 100 to 1000 nM; IC50 [2]: ≥ 1000 nM; IC50 [3]: < 100 nM; IC50 [4]: < 100 nM; IC50 [5]: < 100 nM; IC50 [6]: < 100 nM; IC50 [7]: 100 to 1000 nM; IC50 [8]: < 100 nM; IC50 [9]: < 100 nM; IC50 [10]: < 100 nM; IC50 [11]: < 100 nM

Which IC50 [1] does the source give for `COc1c(F)cccc1Nc1c(-c2ccnc(C)n2)[nH]c2c(CCO)c[nH]c(=O)c12` [Compound 6] here?
The IC50 was at least 1000 nM.

What about the IC50 [2] of the same molecule?
Its IC50 is at least 1000 nM.

And the IC50 [4]?
Its IC50 is 100 to 1000 nM.

What about the IC50 [5] of the same molecule?
The IC50 was 100 to 1000 nM.

And the IC50 [6]?
The IC50 was 100 to 1000 nM.

What about the IC50 [7] of the same molecule?
Its IC50 is 100 to 1000 nM.

What about the IC50 [8] of the same molecule?
Its IC50 is under 100 nM.

And the IC50 [10]?
Its IC50 is under 100 nM.

Which “inhibition of mutant EGFR relative to wild type EGFR” value [12] does the source give for `COCC[C@H]1CNC(=O)c2c1[nH]c(-c1ccnc(C)n1)c2Nc1cccc(Cl)c1OC` [Compound 463b] here?
The value was “greater inhibition of EGFR containing one or more mutations relative to inhibition of wild type EGFR”.

What does the source list for `COCCc1c[nH]c(=O)c2c(Nc3cccc(Cl)c3OC)c(-c3ccncc3F)[nH]c12` [Compound 3]?
IC50 [1]: 100 to 1000 nM; IC50 [2]: ≥ 1000 nM; IC50 [3]: < 100 nM; IC50 [5]: 100 to 1000 nM; IC50 [11]: < 100 nM

What does the source list for `COCCc1c[nH]c(=O)c2c(Nc3cccc(F)c3OC)c(-c3ccnc(C)n3)[nH]c12` [Compound 4]?
IC50 [1]: 100 to 1000 nM; IC50 [2]: ≥ 1000 nM; IC50 [4]: < 100 nM; IC50 [5]: 100 to 1000 nM; IC50 [6]: < 100 nM; IC50 [7]: 100 to 1000 nM; IC50 [8]: < 100 nM; IC50 [9]: < 100 nM; IC50 [10]: < 100 nM
